According to PubChem BioAssay AID2060340 (Molecular Pharmacology Branch, DTP, NCI, 2025):
Several values for one entry are separate records, joined by “and”; a condition that tells them apart may be missing. Equal values may be shown once.

System: 349418-098-R-PDC spheroids, viability, % test/control
Test: Anticancer human tumor 349418-098-R-PDC patient-derived lung adenocarcinoma cell line growth inhibition [IpAb]
Conditions: spheroids with HUVEC and MSC; for viability, T/C: stronger effect = lower value
Summary of the method: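 Combinations with ipatasertib or abemaciclib were tested on tumour spheroids holding HUVEC (25%) and MSC (15%) alongside 60% malignant cells. Top concentration was at or near clinical Cmax (10 microM if undefined), descending in half-log steps.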

[1] = curve of first compound, second compound 0.1 µM
[2] = curve of first compound, second compound 0.316 µM
[3] = curve of first compound, second compound 1 µM
[4] = curve of first compound, second compound 3.16 µM
[5] = curve of first compound, second compound 10 µM
[6] = second compound 0.1 µM, first compound 0.0316 µM
[7] = second compound 0.1 µM, first compound 0.1 µM
[8] = second compound 0.1 µM, first compound 0.316 µM
[9] = second compound 0.1 µM, first compound 1 µM
[10] = second compound 0.316 µM, first compound 0.0316 µM
[11] = second compound 0.316 µM, first compound 0.1 µM
[12] = second compound 0.316 µM, first compound 0.316 µM
[13] = second compound 0.316 µM, first compound 1 µM
[14] = second compound 1 µM, first compound 0.0316 µM
[15] = second compound 1 µM, first compound 0.1 µM
[16] = second compound 1 µM, first compound 0.316 µM
[17] = second compound 1 µM, first compound 1 µM
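Also: spheroids exposed to compounds for 7 days.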

In the case of `CC(C)(C)c1cnc(CSc2cnc(NC(=O)C3CCNCC3)s2)o1` + CC(C)NCC(C(=O)N1CCN(c2ncnc3c2C(C)CC3O)CC1)c1ccc(Cl)cc1, the IC50 [1] is reported as 40.6 nM, the IC50 [2] is reported as < 9.49 nM and the IC50 [3] is reported as < 9.49 nM. For the same molecule, the IC50 [4] was < 9.49 nM, the IC50 [5] was < 9.49 nM and the viability, T/C (second compound 0.1 µM, first compound 0.00949 µM) was 88.9%. It also gave a viability, T/C (second compound 0.1 µM, first compound 0.03 µM) of 65.3%, a viability, T/C (second compound 0.1 µM, first compound 0.0949 µM) of 6.84% and a viability, T/C (second compound 0.1 µM, first compound 0.3 µM) of 2.85%. The viability, T/C (second compound 0.1 µM, first compound 0.949 µM) was 2.98%, the viability, T/C (second compound 0.1 µM, first compound 3 µM) was 2.15% and the viability, T/C (second compound 0.316 µM, first compound 0.00949 µM) was 45.6%. It also gave a viability, T/C (second compound 0.316 µM, first compound 0.03 µM) of 31.9%, a viability, T/C (second compound 0.316 µM, first compound 0.0949 µM) of 5.43% and a viability, T/C (second compound 0.316 µM, first compound 0.3 µM) of 2.19%. The viability, T/C (second compound 0.316 µM, first compound 0.949 µM) was 2.77%, the viability, T/C (second compound 0.316 µM, first compound 3 µM) was 1.75% and the viability, T/C (second compound 1 µM, first compound 0.00949 µM) was 22.1%. It also gave a viability, T/C (second compound 1 µM, first compound 0.03 µM) of 15.5%, a viability, T/C (second compound 1 µM, first compound 0.0949 µM) of 3.25% and a viability, T/C (second compound 1 µM, first compound 0.3 µM) of 2.27%. For the same molecule, the viability, T/C (second compound 1 µM, first compound 0.949 µM) was 2.58%, the viability, T/C (second compound 1 µM, first compound 3 µM) was 2.1% and the viability, T/C (second compound 3.16 µM, first compound 0.00949 µM) was 9.45%. For the same molecule, the viability, T/C (second compound 3.16 µM, first compound 0.03 µM) was 8.27%, the viability, T/C (second compound 3.16 µM, first compound 0.0949 µM) was 3.2% and the viability, T/C (second compound 3.16 µM, first compound 0.3 µM) was 2.2%. It also gave a viability, T/C (second compound 3.16 µM, first compound 0.949 µM) of 2.72%, a viability, T/C (second compound 3.16 µM, first compound 3 µM) of 2.4% and a viability, T/C (second compound 10 µM, first compound 0.00949 µM) of 5.95%. For the same molecule, the viability, T/C (second compound 10 µM, first compound 0.03 µM) was 5.37%, the viability, T/C (second compound 10 µM, first compound 0.0949 µM) was 2.11% and the viability, T/C (second compound 10 µM, first compound 0.3 µM) was 1.93%. For the same molecule, the viability, T/C (second compound 10 µM, first compound 0.949 µM) was 2.03% and the viability, T/C (second compound 10 µM, first compound 3 µM) was 1.53%.

In the case of `COc1c(OCCCN2CCOCC2)ccc2c3n(c(=NC(=O)c4cnc(N)nc4)nc12)CCN3` + CC(C)NCC(C(=O)N1CCN(c2ncnc3c2C(C)CC3O)CC1)c1ccc(Cl)cc1, the IC50 [1] is reported as 3.97 nM, the IC50 [2] is reported as < 3.16 nM and the IC50 [3] is reported as < 3.16 nM. The IC50 [4] was < 3.16 nM, the IC50 [5] was < 3.16 nM and the viability, T/C (second compound 0.1 µM, first compound 0.00316 µM) was 55.1%. It also gave a viability, T/C (second compound 0.1 µM, first compound 0.01 µM) of 29.2%, a viability, T/C [6] of 9.62% and a viability, T/C [7] of 5.79%. It also gave a viability, T/C [8] of 5.45%, a viability, T/C [9] of 5.99% and a viability, T/C (second compound 0.316 µM, first compound 0.00316 µM) of 35%. For the same molecule, the viability, T/C (second compound 0.316 µM, first compound 0.01 µM) was 21.2%, the viability, T/C [10] was 8.11% and the viability, T/C [11] was 6.04%. The viability, T/C [12] was 5.28%, the viability, T/C [13] was 5.13% and the viability, T/C (second compound 1 µM, first compound 0.00316 µM) was 16.6%. For the same molecule, the viability, T/C (second compound 1 µM, first compound 0.01 µM) was 9.17%, the viability, T/C [14] was 7.4% and the viability, T/C [15] was 5.13%. It also gave a viability, T/C [16] of 5.24%, a viability, T/C [17] of 4.6% and a viability, T/C (second compound 3.16 µM, first compound 0.00316 µM) of 9.24%. The viability, T/C (second compound 3.16 µM, first compound 0.01 µM) was 8.35%, the viability, T/C (second compound 3.16 µM, first compound 0.0316 µM) was 6.17% and the viability, T/C (second compound 3.16 µM, first compound 0.1 µM) was 4.91%. The viability, T/C (second compound 3.16 µM, first compound 0.316 µM) was 4.85%, the viability, T/C (second compound 3.16 µM, first compound 1 µM) was 4.78% and the viability, T/C (second compound 10 µM, first compound 0.00316 µM) was 6.46%. It also gave a viability, T/C (second compound 10 µM, first compound 0.01 µM) of 6.12%, a viability, T/C (second compound 10 µM, first compound 0.0316 µM) of 5.32% and a viability, T/C (second compound 10 µM, first compound 0.1 µM) of 4.15%. The viability, T/C (second compound 10 µM, first compound 0.316 µM) was 4.39% and the viability, T/C (second compound 10 µM, first compound 1 µM) was 4.49%.

With `Cn1nccc1Nc1nccc(-c2ccn(C(CO)c3ccc(Cl)c(F)c3)c(=O)c2)n1` (configuration not stated) + CCN1CCN(Cc2ccc(Nc3ncc(F)c(-c4cc(F)c5nc(C)n(C(C)C)c5c4)n3)nc2)CC1 the IC50 (curve of first compound, second compound 0.01 µM) was < 31.6 nM, the IC50 (curve of first compound, second compound 0.0316 µM) was < 31.6 nM and the IC50 [1] was < 31.6 nM. For the same molecule, the IC50 [2] was < 31.6 nM, the IC50 [3] was < 31.6 nM and the viability, T/C (second compound 0.01 µM, first compound 0.0316 µM) was 34.3%. It also gave a viability, T/C (second compound 0.01 µM, first compound 0.1 µM) of 31.1%, a viability, T/C (second compound 0.01 µM, first compound 0.316 µM) of 28.1% and a viability, T/C (second compound 0.01 µM, first compound 1 µM) of 27.3%. For the same molecule, the viability, T/C (second compound 0.01 µM, first compound 3.16 µM) was 23.5%, the viability, T/C (second compound 0.01 µM, first compound 10 µM) was 19.9% and the viability, T/C (second compound 0.0316 µM, first compound 0.0316 µM) was 21.5%. The viability, T/C (second compound 0.0316 µM, first compound 0.1 µM) was 23%, the viability, T/C (second compound 0.0316 µM, first compound 0.316 µM) was 18.6% and the viability, T/C (second compound 0.0316 µM, first compound 1 µM) was 18%. It also gave a viability, T/C (second compound 0.0316 µM, first compound 3.16 µM) of 17.1%, a viability, T/C (second compound 0.0316 µM, first compound 10 µM) of 16.3% and a viability, T/C [6] of 13.1%. The viability, T/C [7] was 13.4%, the viability, T/C [8] was 13.2% and the viability, T/C [9] was 12.7%. It also gave a viability, T/C (second compound 0.1 µM, first compound 3.16 µM) of 13.3%, a viability, T/C (second compound 0.1 µM, first compound 10 µM) of 13.5% and a viability, T/C [10] of 11.6%. It also gave a viability, T/C [11] of 11.1%, a viability, T/C [12] of 11.2% and a viability, T/C [13] of 10.8%. It also gave a viability, T/C (second compound 0.316 µM, first compound 3.16 µM) of 13%, a viability, T/C (second compound 0.316 µM, first compound 10 µM) of 13.2% and a viability, T/C [14] of 12.7%. The viability, T/C [15] was 10.4%, the viability, T/C [16] was 11.1% and the viability, T/C [17] was 11.7%. For the same molecule, the viability, T/C (second compound 1 µM, first compound 3.16 µM) was 12.5% and the viability, T/C (second compound 1 µM, first compound 10 µM) was 12.2%.

In the case of `Cn1ncnc1[C@H]1c2n[nH]c(=O)c3cc(F)cc(c23)N[C@@H]1c1ccc(F)cc1`, the viability, T/C (compound 0.000316 µM) is reported as 96.5% and 98.7%, the viability, T/C (compound 0.001 µM) is reported as 100% and 99.5% and the viability, T/C (compound 0.00316 µM) is reported as 94.5% and 104%. For the same molecule, the viability, T/C (compound 0.01 µM) was 94.8% and 100%, the viability, T/C (compound 0.0316 µM) was 83.4% and 81.5% and the viability, T/C (compound 0.1 µM) was 75.5% and 78.4%. The IC50 (curve of compound) was > 100 nM.
